Laboratory results published in patent US5461059A, “Derivatives of terbutylphenyl-1-amino-4-hydroxybutane their preparation processes and the pharmaceutical compositions containing them” (priority 1990, dated 1995).
Where two headings read alike, the source gives them in different places.

What was measured:
[1] = type: in vivo, mice
Excerpt: The principle of this test consists in chronometering the duration for which mice maintain itself on a rod rotating at a constant speed. Compounds which are endowed with sedative or myorelaxing or inhibitory of the motor coordination, will induce a precocious fall, before 120 seconds which are the maximals period of study. […] This test takes place 30 mn and 60 mn after administration. […] Chlorpromazine, major neuroleptic used as positive standard in the Rota-rod Test, caused the fall before the time granted, of 90% of the mice from the dosage of 4 mg/kg by intraperitoneal way.

[2] = Irwin's test (modified, Morpurgo), behaviour in mice; type: in vivo; conditions: oral
Protocol: The Irwin's test, modified according to Morpurgo's Technique (1971) has been carried out to search optional alterations of the spontaneous behaviour under the action of the compound of example III or of a H1-antihistaminic of the first generation Dexchloropheniramine, known to induce some effects of drowsiness in the person. After administration by oral way, the mice have been kept under observation for 30 mn then have submitted to a seri. of simple test of behavioural screening after 30 mn, 3 hours and 24 hours.

Adenosine A1 = target: T1, Adenosine A1 (Rattus norvegicus, UniProt P25099); experiment: Affinity for adenosine A1 ([3H]cyclohexyladenosine); type: binding
T1 construct: membranar receptors of various rats organs; from tissue; host or cells: rat cortex
T1 sequence (P25099 1-326): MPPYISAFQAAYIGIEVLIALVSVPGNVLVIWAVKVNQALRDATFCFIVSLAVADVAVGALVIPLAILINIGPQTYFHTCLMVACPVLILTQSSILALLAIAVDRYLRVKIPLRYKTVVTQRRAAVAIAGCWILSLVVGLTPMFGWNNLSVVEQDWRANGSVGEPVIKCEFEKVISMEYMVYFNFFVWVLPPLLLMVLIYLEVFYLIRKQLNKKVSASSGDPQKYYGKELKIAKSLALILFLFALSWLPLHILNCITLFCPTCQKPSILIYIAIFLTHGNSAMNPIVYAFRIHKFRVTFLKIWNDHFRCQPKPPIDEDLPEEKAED
Protocol: (§1) A broad range of membranar receptors of various rats organs has been tested according to the same principle than the H1 receptor under the following conditions which are summarized:
Adenosine A1: cortex, 90 mn at 25° C. in 50 mM TRIS-ClH buffer (pH 7.7) against 1 nMol of [^3 H] cyclohexyladenosine
(§2) The more weak is the CI50, the more high is the affinity.

Muscarinic M2 = target: T2, Muscarinic M2 (Rattus norvegicus, UniProt P10980); experiment: biochemical; type: binding
T2 sequence (P10980 1-466): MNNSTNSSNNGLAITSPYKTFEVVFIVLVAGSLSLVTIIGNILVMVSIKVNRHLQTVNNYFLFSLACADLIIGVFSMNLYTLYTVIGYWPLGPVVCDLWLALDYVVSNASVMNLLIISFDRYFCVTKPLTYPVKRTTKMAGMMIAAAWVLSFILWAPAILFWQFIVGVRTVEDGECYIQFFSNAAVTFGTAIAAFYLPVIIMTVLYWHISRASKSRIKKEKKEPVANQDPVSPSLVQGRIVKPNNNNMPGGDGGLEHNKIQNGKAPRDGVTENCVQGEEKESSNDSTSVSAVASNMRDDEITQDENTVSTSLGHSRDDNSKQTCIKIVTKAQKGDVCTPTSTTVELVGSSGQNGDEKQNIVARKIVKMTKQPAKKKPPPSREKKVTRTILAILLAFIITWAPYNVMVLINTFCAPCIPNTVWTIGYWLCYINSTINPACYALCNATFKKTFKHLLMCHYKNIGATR

[3] = tested on: Central sites to benzodiazepines; experiment: Affinity for central sites to benzodiazepines ([3H]-Flunitrazepam); type: binding; conditions: rat whole brain; 0.3 nM [3H]-Flunitrazepam, pH 7.1; read-out: CI50 (the source's name)
Protocol: Central sites to benzodiazepines: whole brain, 90 mn at 0° C. in 50 mM TRIS-ClH buffer (pH 7.1) against 0.3 nM [^3 H]-Flunitrazepam.

GABAB = target: T3, GABAB (Rattus norvegicus, UniProt Q9Z0U4); experiment: Affinity for GABAB ([3H]Baclofen); type: binding
T3 construct: membranar receptors of various rats organs; from tissue; host or cells: rat cerebellum
T3 sequence (Q9Z0U4 17-960 limits assumed): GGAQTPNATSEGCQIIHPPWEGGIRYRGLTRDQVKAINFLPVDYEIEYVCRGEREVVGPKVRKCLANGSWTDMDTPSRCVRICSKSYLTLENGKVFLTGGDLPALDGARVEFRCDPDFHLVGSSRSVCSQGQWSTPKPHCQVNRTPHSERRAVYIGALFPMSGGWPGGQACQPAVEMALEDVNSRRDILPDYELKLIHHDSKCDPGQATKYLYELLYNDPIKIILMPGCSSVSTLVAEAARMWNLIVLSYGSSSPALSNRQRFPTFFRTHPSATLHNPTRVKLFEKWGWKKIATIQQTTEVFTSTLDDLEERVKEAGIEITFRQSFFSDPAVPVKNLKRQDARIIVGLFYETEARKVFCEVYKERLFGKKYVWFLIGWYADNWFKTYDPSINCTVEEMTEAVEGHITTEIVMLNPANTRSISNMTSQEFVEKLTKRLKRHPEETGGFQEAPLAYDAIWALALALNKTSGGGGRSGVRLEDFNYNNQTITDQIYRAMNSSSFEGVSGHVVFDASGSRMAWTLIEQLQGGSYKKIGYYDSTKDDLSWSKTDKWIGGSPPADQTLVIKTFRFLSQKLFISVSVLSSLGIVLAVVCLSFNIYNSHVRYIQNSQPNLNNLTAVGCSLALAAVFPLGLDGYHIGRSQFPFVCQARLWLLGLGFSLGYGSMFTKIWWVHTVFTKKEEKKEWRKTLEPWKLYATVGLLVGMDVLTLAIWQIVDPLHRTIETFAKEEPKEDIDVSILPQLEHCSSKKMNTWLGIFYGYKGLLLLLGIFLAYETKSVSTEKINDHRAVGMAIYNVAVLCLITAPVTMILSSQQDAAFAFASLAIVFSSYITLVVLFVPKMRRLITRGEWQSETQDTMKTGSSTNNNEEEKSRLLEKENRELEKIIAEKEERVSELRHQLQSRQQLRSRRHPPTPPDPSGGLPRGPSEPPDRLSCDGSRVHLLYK
T3 sequence (O88871 41-940 partner): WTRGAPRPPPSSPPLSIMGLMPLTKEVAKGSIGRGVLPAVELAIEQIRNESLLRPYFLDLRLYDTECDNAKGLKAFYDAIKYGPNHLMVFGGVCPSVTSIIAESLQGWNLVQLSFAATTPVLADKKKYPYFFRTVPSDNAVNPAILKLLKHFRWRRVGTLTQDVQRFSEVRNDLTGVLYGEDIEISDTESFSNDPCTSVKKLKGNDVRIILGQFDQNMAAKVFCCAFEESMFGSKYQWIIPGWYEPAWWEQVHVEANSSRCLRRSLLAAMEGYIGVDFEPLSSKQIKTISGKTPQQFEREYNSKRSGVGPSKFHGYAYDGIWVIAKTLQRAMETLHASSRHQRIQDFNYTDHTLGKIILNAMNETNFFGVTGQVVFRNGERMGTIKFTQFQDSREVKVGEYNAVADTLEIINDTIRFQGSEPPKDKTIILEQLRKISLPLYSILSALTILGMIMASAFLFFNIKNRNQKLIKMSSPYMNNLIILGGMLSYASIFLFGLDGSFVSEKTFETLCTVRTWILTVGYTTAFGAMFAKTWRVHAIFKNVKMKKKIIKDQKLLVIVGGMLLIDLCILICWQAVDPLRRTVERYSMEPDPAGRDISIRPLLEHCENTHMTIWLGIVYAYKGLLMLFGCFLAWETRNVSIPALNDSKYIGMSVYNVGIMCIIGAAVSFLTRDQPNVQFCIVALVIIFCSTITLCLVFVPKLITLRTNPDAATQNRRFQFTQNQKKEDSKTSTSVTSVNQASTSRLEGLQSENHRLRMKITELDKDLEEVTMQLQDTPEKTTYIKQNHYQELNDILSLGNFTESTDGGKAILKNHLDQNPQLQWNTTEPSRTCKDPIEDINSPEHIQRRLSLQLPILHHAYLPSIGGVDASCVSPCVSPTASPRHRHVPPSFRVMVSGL
Protocol: as §1
GABAB : Cerebellum, 10 mn at 22° C. in 50 mM TRIS-ClH buffer (pH 7.4) added to 1.2 mM SO^4 Mg and 2.5 mM Cl2 Ca, against 20 nM of [^3 H] Baclofen.
as §2

[4] = target: T4, Peripheral sites to the benzodiazepines (Rattus norvegicus, UniProt P16257); experiment: Affinity for peripheral sites to benzodiazepines ([3H]PK 11195); type: binding
T4 construct: membranar receptors of various rats organs; from tissue; host or cells: rat cortex
Protocol: as §1
Peripheral sites to the benzodiazepines: Cortex 90 mn at 25° C. in 90 mM PO4 HNa2 /PO4 H2 K buffer, 81 mM ClNa and […] (pH 7.4) against 1 nM [^3 H]PK 11195.
as §2

GABAA = experiment: Affinity for GABAA ([3H]Muscimol); type: binding; conditions: rat whole brain; 5 nM [3H]Muscimol, pH 7.2; read-out: CI50 (the source's name)
Protocol: GABAA : whole brain 20 mn at 4° C., in 50 nM TRIS-ClH buffer (pH 7.2) added to 0.5%. TRITON X-100, against 5 nM [^3 H] Muscimol.

Sigma receptor = target: T5, Sigma receptor (Rattus norvegicus, UniProt Q9R0C9); experiment: Affinity for Sigma receptors ([3H](+)3-PPP); type: binding
T5 construct: membranar receptors of various rats organs; from tissue; host or cells: rat whole brain
T5 sequence (Q9R0C9 whole entry): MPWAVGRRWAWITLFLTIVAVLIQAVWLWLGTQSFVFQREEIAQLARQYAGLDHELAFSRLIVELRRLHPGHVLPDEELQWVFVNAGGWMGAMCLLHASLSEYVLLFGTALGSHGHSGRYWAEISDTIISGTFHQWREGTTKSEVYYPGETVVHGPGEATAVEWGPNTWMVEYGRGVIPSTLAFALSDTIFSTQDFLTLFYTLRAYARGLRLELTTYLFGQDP
Protocol: as §1
Sigma receptors: whole brain, 2 hours at 22° C. in 50 mM TRIS-ClH buffer (pH 8) against 2 nM of [^3 H] (+)3-PPP (3-(3-hydroxyphenyl)N-(1-propyl) piperidine).
as §2

Adenosine A2 = target: T6, Adenosine A2 (Rattus norvegicus, UniProt P30543); experiment: Affinity for adenosine A2 ([3H]NECA); type: binding
T6 construct: membranar receptors of various rats organs; from tissue; host or cells: rat striatum
T6 sequence (P30543 whole entry): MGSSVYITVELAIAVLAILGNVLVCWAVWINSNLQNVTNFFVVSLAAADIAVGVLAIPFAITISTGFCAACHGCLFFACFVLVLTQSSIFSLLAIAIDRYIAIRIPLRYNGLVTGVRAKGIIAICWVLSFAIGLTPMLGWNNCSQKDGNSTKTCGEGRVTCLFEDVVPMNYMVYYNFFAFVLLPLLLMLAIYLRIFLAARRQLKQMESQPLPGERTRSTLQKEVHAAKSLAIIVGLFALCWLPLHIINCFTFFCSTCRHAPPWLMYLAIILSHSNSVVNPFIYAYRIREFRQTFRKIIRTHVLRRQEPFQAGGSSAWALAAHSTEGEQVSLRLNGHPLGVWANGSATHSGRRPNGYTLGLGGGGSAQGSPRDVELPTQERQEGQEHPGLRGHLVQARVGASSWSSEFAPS
Protocol: as §1
Adenosine A2: striatum 60 mn at 25° in 50 mM TRIS-ClH buffer (pH 7.7) added with 50 nM cyclopentyladenosine, 10 mM Cl2 Mg and 0.1 Unit/ml […] against 4 nM of [^3 H] NECA (5'-N-ethylcarboxamido adenosine).
as §2

[5] = tested on: bronchospasm due to histamine; experiment: Bronchospasm to histamine aerosol in guinea pigs, oral; type: in vivo, guinea pig; conditions: single dosage 10 mg/kg
Protocol: By oral way the single dosage of 10 mg/kg has been studied as a function of time.

[6] = tested on: bronchospasm due to histamine; experiment: Bronchospasm to histamine aerosol in guinea pigs, intraperitoneal; type: in vivo, guinea pig; conditions: for ED50: Cavia porcellus, ip, 0.5 h, read-out: ED50 (efficient dosage at 50%) against histamine bronchospasm
Protocol: Inhalating an aerosol at 1%, of histamine (aqeuous solution in distilled water, nebulization with a apparatus HOSPITAK) causes in the guinea pigs, a bronchospasm which leads with immobilization of the animals on their own side. The time needed for the animals to lie down is measured for 5 minutes maximum.

[7] = target: T7, H1 receptors of rat cortexes (Rattus norvegicus, UniProt P31390); experiment: Affinity for H1 receptors, rat cortex membranes ([3H]Mepyramine); type: binding; conditions: read-out: CI50 (50% inhibitory concentration) on H1 receptors, 2 nM tritiated Mepyramine, 30 mn, 25° C., pH 7.4
T7 construct: membranar preparations of homogenates of rat cortexes or guinea pig lungs; from tissue; host or cells: rat cortex membranes
T7 sequence (P31390 whole entry): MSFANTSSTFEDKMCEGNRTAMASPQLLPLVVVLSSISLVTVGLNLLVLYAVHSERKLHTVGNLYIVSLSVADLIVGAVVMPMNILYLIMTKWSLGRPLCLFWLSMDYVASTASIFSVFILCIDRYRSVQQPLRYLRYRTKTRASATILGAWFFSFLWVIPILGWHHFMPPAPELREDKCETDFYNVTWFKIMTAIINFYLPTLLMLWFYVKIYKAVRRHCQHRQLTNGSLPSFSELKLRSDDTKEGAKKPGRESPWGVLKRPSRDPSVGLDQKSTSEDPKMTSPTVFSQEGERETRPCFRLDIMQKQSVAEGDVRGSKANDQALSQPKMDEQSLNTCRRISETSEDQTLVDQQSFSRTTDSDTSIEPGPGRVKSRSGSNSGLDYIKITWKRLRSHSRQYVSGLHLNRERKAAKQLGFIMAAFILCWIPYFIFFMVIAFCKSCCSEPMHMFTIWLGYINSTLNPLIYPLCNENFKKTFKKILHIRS
Protocol: (§3) After 30 mn at 25° C. and at pH 7.4, in a 50 mM TRIS-ClH buffer for the membrans of the cortex or a 0.5 M PO4 HNa2 /PO4 H2 K buffer for the lungs membrans, the residual bound fraction of tritiated ligand is counted by scintillation in a liquid medium after filtration on an apparatur of the Brandel's type and several washings.

Muscarinic M1 = target: T8, Muscarinic M1 (Rattus norvegicus, UniProt P08482); experiment: Affinity for muscarinic M1 ([3H]-pirenzepine); type: binding; conditions: rat cortex, striatum and hypocampus; 2 nM [3H]-pirenzepine, pH 7.4; read-out: CI50 (the source's name)
T8 construct: membranar receptors of various rats organs; from tissue; host or cells: rat cortex, striatum and hippocampus (pool)
T8 sequence (P08482 1-460): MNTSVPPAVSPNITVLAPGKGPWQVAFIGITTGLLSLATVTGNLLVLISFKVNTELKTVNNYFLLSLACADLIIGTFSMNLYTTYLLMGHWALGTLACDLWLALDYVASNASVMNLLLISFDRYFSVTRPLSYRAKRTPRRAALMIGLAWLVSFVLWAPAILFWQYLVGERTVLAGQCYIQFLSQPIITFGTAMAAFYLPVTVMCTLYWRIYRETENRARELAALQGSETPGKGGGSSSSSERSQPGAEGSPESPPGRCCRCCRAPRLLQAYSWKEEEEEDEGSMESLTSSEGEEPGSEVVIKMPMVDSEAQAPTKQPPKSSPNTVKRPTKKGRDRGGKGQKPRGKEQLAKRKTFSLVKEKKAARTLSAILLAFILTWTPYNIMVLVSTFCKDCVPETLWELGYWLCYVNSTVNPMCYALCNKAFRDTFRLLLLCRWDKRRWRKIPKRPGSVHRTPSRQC
Protocol: Muscarinic M1: pool of cortex, striatum and hypocampus, 60 mn at 25° C. in 10 mM PO4 HNa2 /PO4 H2 K buffer (pH 7.4) against 2 nM [^3 H]-pirenzepinc.

[8] = target: T9, H1-receptors of guinea pigs lungs (Cavia porcellus, UniProt P31389); experiment: Affinity for H1 receptors, guinea pig lung membranes ([3H]Mepyramine); type: binding; conditions: read-out: CI50 (50% inhibitory concentration) on H1 receptors, 2 nM tritiated Mepyramine, 30 mn, 25° C., pH 7.4
T9 construct: membranar preparations of homogenates of rat cortexes or guinea pig lungs; from tissue; host or cells: guinea pig lung membranes
T9 sequence (P31389 whole entry): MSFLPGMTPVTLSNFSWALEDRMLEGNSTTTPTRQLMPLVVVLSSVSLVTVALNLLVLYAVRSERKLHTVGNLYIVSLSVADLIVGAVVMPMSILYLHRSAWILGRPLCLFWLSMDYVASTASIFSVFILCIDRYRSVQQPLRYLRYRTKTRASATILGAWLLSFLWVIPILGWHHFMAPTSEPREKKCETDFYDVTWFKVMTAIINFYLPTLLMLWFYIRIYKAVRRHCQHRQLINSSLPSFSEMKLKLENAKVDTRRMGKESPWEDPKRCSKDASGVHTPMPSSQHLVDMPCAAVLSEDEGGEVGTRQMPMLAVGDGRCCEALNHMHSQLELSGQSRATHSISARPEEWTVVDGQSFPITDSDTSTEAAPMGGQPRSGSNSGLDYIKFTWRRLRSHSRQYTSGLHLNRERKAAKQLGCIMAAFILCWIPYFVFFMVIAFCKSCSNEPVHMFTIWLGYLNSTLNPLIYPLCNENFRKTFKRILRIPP
Protocol: as §3

receptors of H1-type = receptors of H1-type (Cavia porcellus, UniProt P31389); experiment: Histamine contraction of isolated ileon of guinea pig; conditions: for activity compared with Terfenadine on isolated ileon: difference not significant
Sequence of receptors of H1-type (P31389 whole entry): as above
Excerpt: The shift of the relationship between contracturing effect and concentration of histamine by the compound to be studied, stamps an anti-H1 activity.

[9] = Single maximal non-toxic dosage by oral way in mice; type: in vivo; conditions: single oral dosage until 1000 mg/kg
Protocol: On the other side a mydriasis has been noticed after 3 hours. […] This is less fine than the Irvin's Test during which the animals are handled and interact with the experimenter.

[10] = rat cortex, 1 nMol [3H]cyclohexyladenosine, pH 7.7, read-out: CI50 (the source's name)
[11] = rat cerebellum, 20 nM [3H]Baclofen, pH 7.4, read-out: CI50 (the source's name)
[12] = rat cortex, 1 nM [3H]PK 11195, pH 7.4, read-out: CI50 (the source's name)
[13] = rat striatum, 4 nM [3H]NECA, pH 7.7, read-out: CI50 (the source's name)
[14] = intraperitoneal, 10 mg/kg, 30 minutes after administration

SMILES: CN(C)CCCN1c2ccccc2Sc2ccc(Cl)cc21 [Chlorpromazine]
- mice falling before the time granted (120 seconds) ([1]; intraperitoneal, from 4 mg/kg): 90%

SMILES: CN(C)CC[C@@H](c1ccc(Cl)cc1)c1ccccn1 [Dexchlorpheniramine]
- behavioural alteration (Irwin's test) ([2]; 100 mg/kg, 30 mn): a hyperactivity and a slight irritability
- behavioural alteration (hyperactivity and slight irritability) ([2]; 100 mg/kg, 3 hours): persisting
- behavioural alteration (hyperactivity and slight irritability) ([2]; 100 mg/kg, 24 hours): disappearing
- ocular effect (Irwin's test) ([2]; 100 mg/kg, after 3 hours): mydriasis

SMILES: COc1ccc(CN(CCN(C)C)c2ccccn2)cc1 [Mepyramine]
- IC50 (Adenosine A1; [10]): > 10 µM
- IC50 (Muscarinic M2): 3.5 µM
- IC50 [3]: > 10 µM
- IC50 (GABAB; [11]): > 10 µM
- IC50 [4, 12]: > 10 µM
- IC50 (GABAA): > 10 µM
- IC50 (Sigma receptor): 0.59 µM
- affinity for Sigma-receptor, times weaker than pentazocine (Sigma receptor; versus pentazocine): ~20 times weaker
- IC50 (Adenosine A2; [13]): > 10 µM

SMILES: CC(C)(C)c1ccc(C(O)CCCN2CCC(C(O)(c3ccccc3)c3ccccc3)CC2)cc1 (centres unmarked) [Terfenadine]
- IC50 (Adenosine A1): > 10 µM
- IC50 (Muscarinic M2): > 10 µM
- IC50 [3]: > 10 µM
- IC50 (GABAB): > 10 µM
- IC50 [4]: > 10 µM
- IC50 (GABAA): > 10 µM
- duration of protection against histamine bronchospasm [5]: 4 h
- IC50 (Sigma receptor): > 10 µM
- IC50 (Adenosine A2): > 10 µM
- ED50 [6]: ~7 mg/kg
- protection against histamine bronchospasm ([6]; intraperitoneal): poorly efficient
- protection against histamine bronchospasm [6, 14]: total protection of all the animals

SMILES: CC(C)(C)c1ccc(C(O)CCCN2CCN(c3nc4ccccc4n3Cc3ccc(F)cc3)CC2)cc1 (centres unmarked) [example III]
- IC50 (Adenosine A1; [10]): > 10 µM
- alteration of rota-rod performance ([1]; oral, until highest tested dosage 100 mg/kg, 30 and 60 mn, versus vehicle): did not alter the performances
- behavioural alteration (Irwin's test) ([2]; maximal tested dosage 400 mg/kg, at 3 hours only): a very weak passivity in half of the animals
- IC50 (Muscarinic M2; pH 7.5, read-out: CI50 (the source's name)): > 10 µM
- IC50 [7]: 1.1 µM
- IC50 (Muscarinic M1): > 10 µM
- IC50 [8]: 2.7 µM
- IC50 [3]: > 10 µM
- effect on histamine contraction of isolated ileon (receptors of H1-type; 10^-5 M): partially irreversible inhibition
- activity compared with Terfenadine on isolated ileon (receptors of H1-type; 10^-5 M): the opposite seems to be produced
- effect on histamine contraction of isolated ileon (receptors of H1-type; 10^-6 M): inhibition of the competitive type
- activity compared with Terfenadine on isolated ileon (receptors of H1-type; 10^-6 M): slightly more active than Terfenadine
- effect on histamine contraction of isolated ileon (receptors of H1-type; 10^-7 M): no effect
- IC50 (GABAB; [11]): > 10 µM
- IC50 [4, 12]: > 10 µM
- clinical symptoms, search for maximal non-toxic dosage [9]: do not display any clinical symptom
- IC50 (GABAA): > 10 µM
- duration of protection against histamine bronchospasm [5]: 12 h
- animals with total protection (more than 5 minutes) at 24 hours ([5]; 24 hours): 50%
- IC50 (Sigma receptor; rat whole brain, 2 nM [3H](+)3-PPP, pH 8, read-out: CI50 (the source's name)): > 10 µM
- IC50 (Adenosine A2; [13]): > 10 µM
- ED50 ([6]; intraperitoneal, from regression curve): ~6.7 mg/kg
- protection against histamine bronchospasm ([6]; intraperitoneal): poorly efficient
- protection against histamine bronchospasm [6, 14]: total protection of all the animals
